Test system: pure chytrid culture
Assay: Chytrid tolerance: pure chytrid culture in well plate, observed under a microscope (Examples 13-14)
Assay type: cell-based
Procedure: Experiments were performed to determine chytrid tolerance to bleach, salt, Lufenuron (chemical biocide), and Rid Fungus (blend of natural organic herbs) for evaluation as a treatment for chytrids. A pure chytrid culture in a well plate was treated every 24 hours and observed under a microscope to determine the effect. An untreated culture was used as a control for comparison purposes. Qualitative assessments and quantitative estimates were made by visual observation under a microscope.
Several concentrations of salt and Rid Fungus (blend of organic herbs) were further investigated as a chytrid treatment, as in Example 13. A pure chytrid culture in a well plate was treated and visually observed under a microscope to determine the effect. An untreated culture was used as a control for comparison purposes.

[Cl-].[Na+] [NaCl, sodium chloride]
microscope observation of pure chytrid culture (Example 13, 20 ppt, after 1 hour): clumped sporangia and zoospores
microscope observation of pure chytrid culture (Example 13, 20 ppt, after 24 hours): Wilting sporangia and no zoospores
microscope observation of pure chytrid culture (Example 13, 20 ppt, after 48 hours): bacteria with shriveled zoospores and sporangia
microscope observation of pure chytrid culture (Example 13, 20 ppt, after 72 hours): no zoospores or sporangia
microscope observation of pure chytrid culture (Example 14, 5 ppt, after 1 hour): a less dense mass of zoospores with some being motile but sluggish
microscope observation of pure chytrid culture (Example 14, 5 ppt, after 4.5 hours): A mix of non-motile and motile zoospores
microscope observation of pure chytrid culture (Example 14, 10 ppt, after 1 hour): a mass of zoospores at the same density as the 5 ppt treatment but with all being non-motile
microscope observation of pure chytrid culture (Example 14, 10 ppt, after 4.5 hours): Non-motile zoospores only
microscope observation of pure chytrid culture (Example 14, 20 ppt, after 1 hour): a mass of zoospores less dense than mass of the 5 and 10 ppt treatments but with all being non-motile
microscope observation of pure chytrid culture (Example 14, 20 ppt, after 4.5 hours): Non-motile zoospores only

Source: patent publication US20160281050A1, “METHODS FOR TREATING A CULTURE OF HAEMATOCOCCUS PLUVIALIS FOR CONTAMINATION USING SALT AND HYDROGEN PEROXIDE” (HELIAE DEVELOPMENT LLC, priority 2015, published 2016)
